Assay: Relaxometry of the particles (Bruker Minispec MQ60 NMR analyser, 1.4 T)
Format: physicochemical
Conditions: at 50 MHz; gadolinium quantities measured by ICP
Protocol: The relaxivity r1 considered here is a relaxivity per M^n+ ion (for example gadolinium). r1 is found from the following formula: 1/T1=[1/T1]water+r1[M^n+] […]
Moreover, the relaxivity of the particles from Example 15 was measured by relaxometry, the actual quantities of gadolinium being measured by ICP, on a Varian 710-ES instrument.

O=C([O-])CN1CCN(CC(=O)[O-])CCN(CC(=O)[O-])CCN(CC(=O)[O-])CC1.[Gd+3] [Gd-DOTA]
relaxivity r1 (of the gadolinium species): 3.8 s^−1 mM^−1 (of gadolinium)^−1.s^−1

Source: patent publication US12533426B2, “Ultrafine nanoparticles comprising a functionalized polyorganosiloxane matrix and including metal complexes; method for obtaining same and uses thereof in medical imaging and/or therapy” (NANOH, priority 2010, dated 2026)
